Experimental findings from US8673882B2, “Inhibitors of autotaxin” (University of Tennessee Research Foundation, priority 2011, dated 2014) are described below.

“Also recorded” adds a separate entry of the source. Read-outs that look alike come from different tables or passages of the source.

The target of assay [1] is T1, recombinant human ATX (Homo sapiens, UniProt Q13822). The assay is described as follows: Autotaxin inhibition screening assay (FS-3 FRET substrate). The format is biochemical. Particulars: for remaining activity at 10 µM: 1 μM FS-3, 37° C., read-out: ATX Activity, % control (10 μM); for inhibition at 10 µM: read-out: inhibition (reduction) of FS3 hydrolysis. The procedure:
A 10 μM concentration of the compound is added to 2 nM recombinant human ATX and the FRET (Fluorescence Resonance Energy Transfer) ATX substrate FS-3.
As the first level of screen, 50 μl of recombinant-ATX (2 nM in final concentration) in assay buffer [(Tris 50 mM, NaCl 140 mM, KCl 5 mM, CaCl2 1 mM, MgCl2 1 mM (pH 8.0)] was mixed with 25 μL of FS-3 (Echelon Biosciences, Inc., Salt lake city, Utah), final concentration 1 μM, and 25 μl of test compound was dissolved in assay buffer with 40 μM bovine serum albumin (Sigma, St. Louis, Mo.) in 96-well Costar black-well plate. FS-3 fluorescence at excitation and emission wavelengths of 485 and 538 nm, respectively, were monitored using a FLEXstation II (Molecular Devices, Sunnyvale, Calif.) for 2 h of incubation at 37° C. The differences between time 0 and 120 min were calculated individually and normalized to the vehicle control. The mean±SD of triplicate samples was expressed as percentage of ATX activity. The ATX activity in the presence of the test compounds was compared to vehicle using the […] p<0.05 was considered significant.
The first level of testing was done using 10 μM concentrations of the compounds shown in Tables 1 and 2 added to 2 nM recombinant human ATX and the FRET substrate FS-3. After a 2 h incubation the amount of FS3 hydrolyzed was measured and the residual ATX activity was expressed as a percent of the vehicle-treated sample less the autolysis of FS3 in the absence of ATX.

Assay [2] concerns MM1 hepatocarcinoma cells. The assay is described as follows: Invasion of HUVEC monolayer by MM1 cells. The format is cell-based, rat. The note with it: for LPC-dependent invasion of the HUVEC monolayer: 1.5 μM LPC, FIG. 14; for basal rate of invasion: compounds alone, without LPC. An excerpt: Cancer metastasis is a complex process that cannon be accurately modeled in vitro. Models that utilize cellular monolayers for the invasion of carcinoma cell come the closest to the situation in vivo. Two different cell monolayers, mouse mesothelium and human vascular endothelium were used to examine the role of ATX in the invasion of MM1 hepatocarcinoma cells and the reduction of such invasion by the chemical compounds of the present application. The mesothelial monolayer is an accepted model for invasion of body cavities lined by serous cells whereas, the HUVEC monolayer is considered to be an in vitro model of hematogenous invasion of carcinomas.
Highly invasive MM1 cells originally isolated from the AH130 rat hepatoma cells were utilized in these studies. The cells were grown in suspension in DMEM supplemented with 10% fetal bovine serum, 2 mM glutamine, 100 units/ml penicillin and 10 μg/ml streptoinycin. Mesothelial cells were isolated and cultured from C57BL/6 mice. Human umbilical cord vascular endothelial cells (HUVEC) were obtained from VEC Technologies Inc., (Rensselaer, N.Y., USA) and were grown in MCDB-131 complete medium containing 10% fetal bovine serum. 90 μg/ml heparin, 10 ng/ml EGF, 1 μg/ml hydrocortisone, 0.2 mg/ml EndoGrowth supplement, 100 units/ml penicillin G, 100 μg/ml streptomycin and 25 μg/ml amphotericin B (all from VEC Technologies). Tumor cell invasion was performed by seeding 1.3×10^5 HUVECs (passage 7) into each well of a 12-well plate pre-coated with 0.2% gelatin (Sigma) and cultured for 2 days to form a confluent monolayer. Mesothelial cells harvested from two-three mice were initially plated in 6-well plates and grown to confluency in DMEM medium supplemented with 10% fetal bovine serum in the presence of 100 units/ml penicillin G and 10 μg/ml streptomycin. When confluent, the mesothelial cells were split into three equal aliquots (˜5×10^4 cells each) and plated to three wells of a 12-well plate and grown to confluence.
Invasion of MM1 cells of Example 53 was determined and the effect of compounds of the present application in reducing the invasion was determined. For all invasion assays, MM1 cells were pre-stained with 2 μg/ml calcein AM (Invitrogen, USA) for 2 h, rinsed once, and seeded at a density of 5×10^4 cells/well over the monolayers. Tumor cells were left to invade the HUVEC monolayer for 24 h in MCDB-131 complete media containing 1% serum with or without addition of 1.5 μM LPC. MM1 cells were plated on the mesothelial monolayers in 2% fetal bovine serum-supplemented DMEM medium in the presence of 100 units/ml penicillin G and 10 μg/ml streptomycin with or without 1.5 μM LPC (5 μM for the mesothelium cells) and invasion was allowed to proceed for 20 h. The day after MM1 cell seeding, non-invaded tumor cells were removed by repeated five rinses of the HUVEC monolayer (three rinses for the mesothelial monolayers) with PBS (containing Ca^2+ and Mg^2+) followed by fixation with 10% buffered formalin. The number of tumor cells that penetrated the monolayer was photographed under a NIKON TiU inverted microscope using phase-contrast and fluorescence illumination in a minimum of five non-overlapping fields at 100× magnification. The fluorescent images were overlayed on top of the phase contrast images using the Elements BR software (version 3.1x) and the invaded MM1 cells showing the characteristic flattened morphology in the plane of focus underneath the monolayer were counted. […]

Assay [3] concerns the target T1, recombinant human ATX. In words: Autotaxin inhibition screening assay (FS-3 FRET substrate). The format is biochemical. The note with it: FS3 hydrolysis.
The mark [4] stands for this setting: 10 μM compound, 2 nM recombinant human ATX, 2 h.

As usually defined, the inhibition is the share of the control response that was lost under treatment. Turning to `CCCCCCCCCCCCCCCc1ccc(CP(=O)(O)O)cc1` [Compound 22, 4-Pentadecylbenzylphosphonic acid], in assay [1] (setting [4]), the remaining activity at 10 µM came out at 5.2%. Also, the inhibition at 10 µM in assay [1] was 95%. In assay [2], the “LPC-dependent invasion of the HUVEC monolayer” value is listed as “dose-dependently inhibited; also recorded: blockage” and the “basal rate of invasion” value is on record as “did not reduce”. In addition, in assay [3], the “ATX inhibition in dose-response curves (FIG. 10)” value was “dose-dependently and completely inhibited ATX”.

`CCCCCCCCCCC/C=C/c1ccc2cc(CP(=O)(O)O)ccc2c1` [Compound 30b, (E)-6-Tridec-1-enyl-naphthalen-2-yl-methylphosphonic acid]: in assay [1] (setting [4]), the remaining activity at 10 µM stood at 17.3% and the inhibition at 10 µM is 83%. In assay [2], the “LPC-dependent invasion of the HUVEC monolayer” value was “dose-dependently inhibited” and the “basal rate of invasion” value is on record as “did not reduce”. Besides, the “ATX inhibition in dose-response curves (FIG. 10)” value in assay [3] was “dose-dependently and completely inhibited ATX”.
